Test results from patent US11576985B2, “Contrast imaging agent with dissolved gas-evolving fluid” (BAYER HEALTHCARE LLC, priority 2015, dated 2023).
Read-outs that look alike come from different tables or passages of the source.

Key:
[1] = humans, compared with rats; cited from earlier work
[2] = rats; cited from earlier work
[3] = Amount of xenon gas dissolved in water, blood and oil with increasing pressure, computed by Henry's Law; assay type: physicochemical
Description: Dissolution of xenon gas in liquid, such as saline or other medical fluid, including an iodine X-ray contrast solution, provides a diagnostic contrast composition with a variety of available concentrations of xenon (mg) per mL of liquid based on a number of parameters, including pressure or presence of one or more concentration-augmenting compositions. For example, the concentration of the gas-evolving fluid in the carrier fluid may be dependent on pressure and temperature. In certain circumstances, it may be desirable to augment the concentration of the gas-evolving fluid beyond the carrying capacity of the carrier fluid at, for example, standard temperature and pressure. For example, according to Henry's Law, the amount of a gas dissolved in a liquid is proportional to the partial pressure of the gas in the volume of the liquid at a given temperature. Table 2 below uses the coefficients from Table 1 above to compute the amount of xenon gas that is dissolved in water, blood, and oil based on increasing pressure (from 1 atm to 30 atm).

[4] = 37 C., cited from earlier work

Amount of Gas Dissolved in the Liquid ([3]; blood, 1 atm) [mgmXe/ml] | Amount of Gas Dissolved in the Liquid ([3]; blood, 2 atm) [mgmXe/ml] | Amount of Gas Dissolved in the Liquid ([3]; blood, 4 atm) [mgmXe/ml] | Amount of Gas Dissolved in the Liquid ([3]; blood, 5 atm) [mgmXe/ml] | Amount of Gas Dissolved in the Liquid ([3]; blood, 30 atm) [mgmXe/ml] | Amount of Gas Dissolved in the Liquid ([3]; oil, 1 atm) [mgmXe/ml] | Amount of Gas Dissolved in the Liquid ([3]; oil, 2 atm) [mgmXe/ml] | Amount of Gas Dissolved in the Liquid ([3]; oil, 4 atm) [mgmXe/ml] | Amount of Gas Dissolved in the Liquid ([3]; oil, 5 atm) [mgmXe/ml] | Amount of Gas Dissolved in the Liquid ([3]; oil, 30 atm) [mgmXe/ml] | Amount of Gas Dissolved in the Liquid ([3]; saline, 1 atm) [mgmXe/ml] | Amount of Gas Dissolved in the Liquid ([3]; saline, 2 atm) [mgmXe/ml] | Amount of Gas Dissolved in the Liquid ([3]; saline, 4 atm) [mgmXe/ml] | Amount of Gas Dissolved in the Liquid ([3]; saline, 5 atm) [mgmXe/ml] | Amount of Gas Dissolved in the Liquid ([3]; saline, 30 atm) [mgmXe/ml] | Compound | retention half-life [1] | retention half-life [2] | bunsen constant ([4]; olive oil) | bunsen constant ([4]; seawater (*1.3 of pure water)) | bunsen constant ([4]; water)
– | – | – | – | – | – | – | – | – | – | – | – | – | – | – | FC(F)(F)C(F)(F)C(F)(F)C(F)(F)C(F)(F)C(F)(F)C(F)(F)C(F)(F)Br [Perfluorooctylbromide] | shorter retention half-life in humans | about 6 hours | – | – | –
0.7603 | 1.521 | 3.041 | 3.801 | 22.81 | 9.942 | 19.88 | 39.77 | 49.71 | 298.2589 | 0.4971 | 0.9942 | 1.988 | 2.485 | 14.91 | [Xe] [xenon] | – | – | 1.7 | 0.1105 | 0.085
